We go through 36 compounds from publication PMC6792352, “Limited Chemical Structural Diversity Found to Modulate Thyroid Hormone Receptor in the Tox21 Chemical Library” (Environmental Health Perspectives, 2019).

The structures appear in SMILES notation. Counter-ions that a name gives are not always drawn. Bounds are passed on as bounds.

One series can be described thus: in vitro. Conditions: rat, gh3-tre-luc cells, AC50 (uM) modified / 1000.
Turning to `Cc1cc(Nc2ccc(O)cc2)ccc1N` [4-Amino-4'-hydroxy-3-methyldiphenylamine], the CC50 at 24 h came out at 11.4 µM. This lies in the double-digit micromolar range.

Take `CC(C)(C)c1n[nH]c(=S)n(N)c1=O` [4-Amino-6-tert-butyl-3-thioxo-3,4-dihydro-1,2,4-triazin-5(2H)-one]: the 50% cytotoxic concentration (CC50) at 24 h was greater than 90 µM.

In the case of `Cc1cc(O)ccc1N` [4-Amino-m-cresol], it took 29.9 µM to reach half-maximal cytotoxicity (CC50 at 24 h).

Take `CC(=O)Nc1ccc(N)cc1` [4-Aminoacetanilide]: the CC50 at 24 h is greater than 90 µM.

In turn, `Nc1ccc(N=Nc2ccccc2)cc1` [4-Aminoazobenzene] returned a CC50 at 24 h greater than 90 µM.

For the compound `NC(=O)c1ccc(N)cc1` [4-Aminobenzamide], the 50% cytotoxic concentration (CC50) at 24 h is greater than 90 µM.

The compound `Nc1ccc(C(=O)O)cc1` [4-Aminobenzoic acid] returned a half-maximal cytotoxic concentration (CC50) at 24 h greater than 90 µM.

`NCCCC(=O)O` [4-Aminobutanoic acid]: the CC50 at 24 h was greater than 50 µM.

`Nc1nc(N)c2nc(CNc3ccc(C(=O)N[C@@H](CCC(=O)O)C(=O)O)cc3)cnc2n1` [4-Aminofolic acid]: the CC50 at 24 h was greater than 50 µM.

`Nc1ccncc1` [4-Aminopyridine] showed a cytotoxic concentration (CC50) at 24 h greater than 90 µM.

Compound `COc1ccc(N=[N+]([O-])c2ccc(OC)cc2)cc1` [4-Azoxyanisole] had a cytotoxic concentration (CC50) at 24 h greater than 90 µM.

On to `Oc1ccc(Cc2ccccc2)cc1` [4-Benzylphenol], for which half-maximal cytotoxicity (CC50 at 24 h) was put at 84.1 µM.

Regarding `COc1cc(CC(C)N)c(OC)cc1Br` (centres unmarked) [4-Bromo-2,5-dimethoxyamphetamine hydrochloride], the half-maximal cytotoxic concentration (CC50) at 24 h was found to be 40.8 µM.

In the case of `Nc1ccc(Br)cc1` [4-Bromoaniline], the 50% cytotoxic concentration (CC50) at 24 h was greater than 90 µM.

In turn, `BrCc1ccc(Br)cc1` [4-Bromobenzyl bromide] had a half-maximal cytotoxic concentration (CC50) at 24 h greater than 90 µM.

`Brc1ccc(-c2ccccc2)cc1` [4-Bromobiphenyl] had a 50% cytotoxic concentration (CC50) at 24 h greater than 90 µM.

Turning to `Cc1ccc(Br)cc1` [4-Bromotoluene], the CC50 at 24 h was greater than 90 µM.

`CCCCc1ccc(N)cc1` [4-Butylaniline] showed a half-maximal cytotoxic concentration (CC50) at 24 h greater than 90 µM.

Compound `CCCCc1ccc(Cl)cc1` [4-Butylchlorobenzene] yielded a 50% cytotoxic concentration (CC50) at 24 h greater than 90 µM.

Take `CCCCC1CCC(O)CC1` (centres unmarked) [4-Butylcyclohexanol]: the CC50 at 24 h was greater than 90 µM.

In turn, `CCCCOc1ccc(N)cc1` [4-Butyloxyaniline] gave a 50% cytotoxic concentration (CC50) at 24 h greater than 90 µM.

For `CCCCc1ccc(O)cc1` [4-Butylphenol], half-maximal cytotoxicity (CC50 at 24 h) was put at 92.9 µM.

Take `O=Cc1ccc(C(=O)O)cc1` [4-Carboxybenzaldehyde]: the cytotoxic concentration (CC50) at 24 h was greater than 90 µM.

For the compound `Nc1ccc(Cl)c(N)c1` [4-Chloro-1,3-diaminobenzene], the CC50 at 24 h was greater than 90 µM.

On to `Oc1ccc(Cl)cc1C1CCCC1` [4-Chloro-2-cyclopentylphenol], for which the 50% cytotoxic concentration (CC50) at 24 h was determined as 55.3 µM. That is a double-digit micromolar value.

The compound `Cc1cc(Cl)ccc1N` [4-Chloro-2-methylaniline hydrochloride] returned a CC50 at 24 h greater than 90 µM.

For the compound `COc1ccc(Cl)cc1C` [4-Chloro-2-methylanisole], the CC50 at 24 h was greater than 100 µM.

In the case of `Cc1cc(Cl)ccc1O` [4-Chloro-2-methylphenol], the CC50 at 24 h is greater than 90 µM.

Compound `Nc1ccc(Cl)cc1[N+](=O)[O-]` [4-Chloro-2-nitroaniline] gave a 50% cytotoxic concentration (CC50) at 24 h greater than 90 µM.

For the compound `Cc1cc(O)cc(C)c1Cl` [4-Chloro-3,5-dimethylphenol], the CC50 at 24 h is greater than 90 µM.

Compound `O=Cc1ccc(Cl)c([N+](=O)[O-])c1` [4-Chloro-3-nitrobenzaldehyde] showed a cytotoxic concentration (CC50) at 24 h greater than 90 µM.

The compound `Nc1ccc(Oc2ccc(Cl)cc2)cc1` [4-Chloro-4'-aminodiphenyl ether] had a CC50 at 24 h greater than 90 µM.

Staying with this series, now noted: rat, gh3-tre-luc cells, AC50 (uM) modified / 1000, Tox21_110001=Tox21_110893; viability, 1 nM T3 present, 24 h.
The compound `C[C@]12CCC(=O)C=C1CC[C@@H]1[C@@H]2CC[C@]2(C)C(=O)CC[C@@H]12` [4-Androstene-3,17-dione] gave a half-maximal cytotoxic concentration (CC50) at 24 h greater than 50 µM.

Staying with this series, now noted: rat, gh3-tre-luc cells, AC50 (uM) modified / 1000, Tox21_110001=Tox21_111116; viability, 1 nM T3 present, 24 h.
In turn, `Cc1cc(O)ccc1Cl` [4-Chloro-3-methylphenol] registered a CC50 at 24 h greater than 50 µM.

The series is the same for the next values; noted with them: rat, gh3-tre-luc cells, AC50 (uM) modified / 1000, Tox21_110001=Tox21_200376; viability, 1 nM T3 present, 24 h.
`Nc1ccc(-c2ccccc2)cc1` [4-Biphenylamine] returned a CC50 at 24 h greater than 90 µM.

Still in this series, the particulars now being: rat, gh3-tre-luc cells, AC50 (uM) modified / 1000, Tox21_110001=Tox21_200490; viability, 1 nM T3 present, 24 h.
The compound `O=C1CCCO1` [4-Butyrolactone] gave a CC50 at 24 h greater than 90 µM.

The series is the same for the next values; noted with them: rat, gh3-tre-luc cells, AC50 (uM) modified / 1000, Tox21_110001=Tox21_201293; viability, 1 nM T3 present, 24 h.
Turning to `Cc1cc(O)ccc1Cl` [4-Chloro-3-methylphenol], the 50% cytotoxic concentration (CC50) at 24 h was greater than 90 µM.

The series is the same for the next values; noted with them: rat, gh3-tre-luc cells, AC50 (uM) modified / 1000, Tox21_110001=Tox21_202269; viability, 1 nM T3 present, 24 h.
As to `C[C@]12CCC(=O)C=C1CC[C@@H]1[C@@H]2CC[C@]2(C)C(=O)CC[C@@H]12` [4-Androstene-3,17-dione], the cytotoxic concentration (CC50) at 24 h was greater than 90 µM.

As a reminder, the CC50 is the concentration at which the toxic effect on the cells reaches its halfway point.
